Data published in patent US20240174696A1, “2,8-DIAZASPIRO[4.5]DECANE COMPOUNDS” (Genentech, Inc., priority 2021, published 2024).
Where a name gives a salt, the structure may show the parent alone.

Key:
[1] = molecular target: Human LATS2 catalytic domain (Homo sapiens (Human), UniProt Q9NRM7); assay: LATS2 High ATP HTRF Assay; type: biochemical; details: no asterisk: LATS2 High ATP HTRF Assay, 5000 μM ATP, 0.05 nM LATS2
Method in brief: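 LATS2 catalytic domain (G553-V1088) co-purified with Mob1b, 0.05 nM, pre-incubated 10 min with compound, then 5000 μM ATP and 0.5 μM STK S1 peptide in HEPES pH7.2 for 2 h at room temperature. HTRF 665/620 nm read; IC50 by four-parameter fit, Ki via Cheng-Prusoff with ATP Km 105 μM.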

[2] = tested on: TAZ nuclear translocation in SW1990 cells; assay: TAZ Nuclear Translocation Assay; type: cell-based; details: Homo sapiens, 4 hours
Method in brief: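 SW1990 cells in RPMI1640/10% FBS treated with compounds for 4 h at 37 °C, then fixed and immunostained for TAZ with Hoechst nuclear counterstain and imaged by high-content imaging. Read-out is the nuclear/cytoplasmic-ring fluorescence ratio, normalized to DMSO (0%) and an inhibitor control (100%); EC50 from four-parameter fit.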

[3] = tested on: pYAP(Ser127) in SW1990 cells; assay: pYAP(Ser127) HTRF Cellular Assay; type: cell-based; details: Homo sapiens, 4 hours
Procedure: The SW1990 cells were seeded at 8000 cells/well by adding 30 μL/well of cells in RPMI1640, 10% FBS, 2 mM glutamine culture media to a 384-well plate (Corning 3570). The cells were incubated overnight at 37° C. Next day, compounds were directly added to the cells using the Echo Liquid Handler (Labcyte), incubate at 37° C. for 4 hours.
The HTRF assay was performed using the Cisbio phospho-YAP Ser127 HTRF kit (64YAPPEG). The media was aspirated from the cells. 20 μL of 1X lysis/blocking buffer was added to the cells, gently shake for 30 minutes at room temperature. 1 μL of the premixed antibody solution (1:40 dilution of each phospho-YAP Eu Cryptate antibody and phospho-YAP d2 antibody) was added to the cells. The plate was sealed and incubated overnight at room temperature. The HTRF (665 nm/620 nm) signal was read on the PHERAstar reader (BMG Labtech). The EC50 values were calculated by fitting the % inhibition with a nonlinear four-parameter logistical equation.

Sequence of Human LATS2 catalytic domain (Q9NRM7 553-1088): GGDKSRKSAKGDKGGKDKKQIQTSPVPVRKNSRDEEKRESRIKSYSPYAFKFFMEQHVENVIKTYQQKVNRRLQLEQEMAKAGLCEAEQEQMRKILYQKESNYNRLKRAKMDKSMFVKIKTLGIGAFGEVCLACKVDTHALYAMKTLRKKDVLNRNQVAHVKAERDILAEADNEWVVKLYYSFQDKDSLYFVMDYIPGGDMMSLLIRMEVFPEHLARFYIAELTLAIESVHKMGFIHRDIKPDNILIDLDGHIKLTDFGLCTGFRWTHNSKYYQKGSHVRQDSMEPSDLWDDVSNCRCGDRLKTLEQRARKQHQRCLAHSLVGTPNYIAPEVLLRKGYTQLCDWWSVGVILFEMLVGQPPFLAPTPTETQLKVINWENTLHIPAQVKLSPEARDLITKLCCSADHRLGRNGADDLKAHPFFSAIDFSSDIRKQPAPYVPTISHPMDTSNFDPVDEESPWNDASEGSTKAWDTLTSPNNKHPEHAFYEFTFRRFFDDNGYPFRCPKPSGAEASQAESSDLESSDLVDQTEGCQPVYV
Sequence of Human LATS2 catalytic domain (Q7L9L4 whole entry partner, the tested form may be a part): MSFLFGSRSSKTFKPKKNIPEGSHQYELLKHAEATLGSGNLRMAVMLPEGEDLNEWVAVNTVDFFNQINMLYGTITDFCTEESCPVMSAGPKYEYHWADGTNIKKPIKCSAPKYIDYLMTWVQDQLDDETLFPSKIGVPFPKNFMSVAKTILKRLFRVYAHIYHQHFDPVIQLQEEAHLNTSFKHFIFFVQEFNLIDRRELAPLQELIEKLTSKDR

| SMILES | Ki [1] | EC50 [2] | EC50 [3] |
| --- | --- | --- | --- |
| c1cc(-c2nc(N3CCC4(CC3)CCN([C@@H]3CCOC3)C4)c3ccncc3n2)ccn1 (single isomer, unassigned) [Compound 112] | 1.07 nM | 700 nM | 940 nM |
| c1cc(-c2nc(N3CCC4(CC3)CCN([C@H]3CCOC3)C4)c3ccncc3n2)ccn1 (single isomer, unassigned) [Compound 113] | 0.82 nM | 660 nM | 1100 nM |
| OC[C@@H]1CC2(CCN(c3nc(-c4ccncc4)nc4cnccc34)CC2)CN1 (single isomer, unassigned) [Compound 197] | 0.059 nM | 1300 nM | 1400 nM |
| OC[C@H]1CC2(CCN(c3nc(-c4ccncc4)nc4cnccc34)CC2)CN1 (single isomer, unassigned) [Compound 198] | 0.041 nM | 1400 nM | 2400 nM |
| c1cc(-c2nc(N3CCC4(CC3)CCN(C3CCCC3)C4)c3ccncc3n2)ccn1 [Compound 106, 4-(2-cyclopentyl-2,8-diazaspiro[4.5]decan-8-yl)-2-(pyridin-4-yl)pyrido[3,4-d]pyrimidine formate] | 0.053 nM | 300 nM | 230 nM |
| FC(F)CN1CCC2(CCN(c3nc(-c4ccncc4)nc4cnccc34)CC2)C1 [Compound 127, 4-(2-(2,2-difluoroethyl)-2,8-diazaspiro[4.5]decan-8-yl)-2-(pyridin-4-yl)pyrido[3,4-d]pyrimidine] | 0.55 nM | 1300 nM | 3400 nM |
| CC1CC2(CCN(c3nc(-c4ccncc4)nc4cnccc34)CC2)CN1 (stereo not shown) [Compound 167, 4-(3-methyl-2,8-diazaspiro[4.5]decan-8-yl)-2-(pyridin-4-yl)pyrido[3,4-d]pyrimidine] | 0.58 nM | 540 nM | 300 nM |
| Brc1cncc2nc(-c3ccncc3)nc(N3CCC4(CCNC4)CC3)c12 [Example 225, 5-Bromo-2-(pyridin-4-yl)-4-(2,8-diazaspiro[4.5]decan-8-yl)pyrido[3,4-d]pyrimidine] | 2.1 nM | 1800 nM | – |
| COc1cncc2nc(-c3ccncc3)nc(N3CCC4(CCNC4)CC3)c12 [Example 233, 5-Methoxy-2-(pyridin-4-yl)-4-(2,8-diazaspiro[4.5]decan-8-yl)pyrido[3,4-d]pyrimidine] | 0.028 nM | 260 nM | – |
| F[C@@H]1CNCC12CCN(c1nc(-c3ccncc3)nc3cnccc13)CC2 [Example 234, (S)-4-(4-fluoro-2,8-diazaspiro[4.5]decan-8-yl)-2-(pyridin-4-yl)pyrido[3,4-d]pyrimidine] | 4.5 nM | 4200 nM | – |
| F[C@H]1CNCC12CCN(c1nc(-c3ccncc3)nc3cnccc13)CC2 [Example 235, (R)-4-(4-fluoro-2,8-diazaspiro[4.5]decan-8-yl)-2-(pyridin-4-yl)pyrido[3,4-d]pyrimidine] | 1.3 nM | 1800 nM | – |
| OCc1cncc2nc(-c3ccncc3)nc(N3CCC4(CCNC4)CC3)c12 [Example 239, (2-(Pyridin-4-yl)-4-(2,8-diazaspiro[4.5]decan-8-yl)pyrido[3,4-d]pyrimidin-5-yl)methanol] | 4.9 nM | > 10000 nM | – |

Second part, the molecule after the results:

| Ki [1] | EC50 [2] | EC50 [3] | SMILES |
| --- | --- | --- | --- |
| 3.08 nM | 2300 nM | 5800 nM | FC(F)(F)CN1CCC2(CCN(c3nc(-c4ccncc4)nc4cnccc34)CC2)C1 [Compound 105, 2-(pyridin-4-yl)-4-(2-(2,2,2-trifluoroethyl)-2,8-diazaspiro[4.5]decan-8-yl)pyrido[3,4-d]pyrimidine] |
| 0.62 nM | 420 nM | 290 nM | CC(C)(CO)N1CCC2(CCN(c3nc(-c4ccncc4)nc4cnccc34)CC2)C1 [Compound 107, 2-methyl-2-(8-(2-(pyridin-4-yl)pyrido[3,4-d]pyrimidin-4-yl)-2,8-diazaspiro[4.5]decan-2-yl)propan-1-ol] |
| 0.31 nM | 380 nM | 580 nM | OC1CC(N2CCC3(CCN(c4nc(-c5ccncc5)nc5cnccc45)CC3)C2)C1 (stereo not shown) [Compound 108, 3-(8-(2-(pyridin-4-yl)pyrido[3,4-d]pyrimidin-4-yl)-2,8-diazaspiro[4.5]decan-2-yl)cyclobutanol] |
| 0.31 nM | 610 nM | 550 nM | OCCN1CCC2(CCN(c3nc(-c4ccncc4)nc4cnccc34)CC2)C1 [Compound 114, 2-(8-(2-(pyridin-4-yl)pyrido[3,4-d]pyrimidin-4-yl)-2,8-diazaspiro[4.5]decan-2-yl)ethanol] |
| 0.17 nM | 370 nM | 360 nM | OCCCN1CCC2(CCN(c3nc(-c4ccncc4)nc4cnccc34)CC2)C1 [Compound 120, 3-(8-(2-(pyridin-4-yl)pyrido[3,4-d]pyrimidin-4-yl)-2,8-diazaspiro[4.5]decan-2-yl)propan-1-ol] |
| 0.8 nM | 300 nM | 630 nM | COCCN1CCC2(CCN(c3nc(-c4ccncc4)nc4cnccc34)CC2)C1 [Compound 121, 4-(2-(2-methoxyethyl)-2,8-diazaspiro[4.5]decan-8-yl)-2-(pyridin-4-yl)pyrido[3,4-d]pyrimidine] |
| 0.29 nM | 280 nM | 490 nM | c1cc(-c2nc(N3CCC4(CC3)CCN(C3CCC3)C4)c3ccncc3n2)ccn1 [Compound 131, 4-(2-cyclobutyl-2,8-diazaspiro[4.5]decan-8-yl)-2-(pyridin-4-yl)pyrido[3,4-d]pyrimidine] |
| 0.069 nM | 400 nM | 250 nM | c1ccc(CN2CCC3(CCN(c4nc(-c5ccncc5)nc5cnccc45)CC3)C2)cc1 [Compound 133, 4-(2-benzyl-2,8-diazaspiro[4.5]decan-8-yl)-2-(pyridin-4-yl)pyrido[3,4-d]pyrimidine] |
| 0.61 nM | 590 nM | 890 nM | CCN1CCC2(CCN(c3nc(-c4ccncc4)nc4cnccc34)CC2)C1 [Compound 138, 4-(2-ethyl-2,8-diazaspiro[4.5]decan-8-yl)-2-(pyridin-4-yl)pyrido[3,4-d]pyrimidine] |
| 0.15 nM | 700 nM | 1000 nM | Cc1n[nH]cc1-c1nc(N2CCC3(CCN(C)C3)CC2)c2ccncc2n1 [Compound 143, 2-(3-methyl-1H-pyrazol-4-yl)-4-(2-methyl-2,8-diazaspiro[4.5]decan-8-yl)pyrido[3,4-d]pyrimidine] |
| 0.09 nM | 470 nM | 390 nM | CCN1CCC2(CCN(c3nc(-c4cn[nH]c4C)nc4cnccc34)CC2)C1 [Compound 151, 4-(2-ethyl-2,8-diazaspiro[4.5]decan-8-yl)-2-(5-methyl-1H-pyrazol-4-yl)pyrido[3,4-d]pyrimidine] |
| 0.016 nM | 130 nM | – | Cc1n[nH]cc1-c1nc(N2CCC3(CCN(C)C3)CC2)c2cc(Cc3ccccc3)ncc2n1 [Example 226, 6-benzyl-2-(3-methyl-1H-pyrazol-4-yl)-4-(2-methyl-2,8-diazaspiro[4.5]decan-8-yl)pyrido[3,4-d]pyrimidine] |
| 0.086 nM | 2300 nM | – | Cc1n[nH]cc1-c1nc(N2CCC3(CCN(C)C3)CC2)c2cc(Cc3cccnc3)ncc2n1 [Example 227, 2-(3-methyl-1H-pyrazol-4-yl)-4-(2-methyl-2,8-diazaspiro[4.5]decan-8-yl)-6-(pyridin-3-ylmethyl)pyrido[3,4-d]pyrimidine] |
| 0.061 nM | 4300 nM | – | Cc1n[nH]cc1-c1nc(N2CCC3(CCNC3)CC2)c2ccnc(Cl)c2n1 [Example 232, 8-chloro-2-(3-methyl-1H-pyrazol-4-yl)-4-(2,8-diazaspiro[4.5]decan-8-yl)pyrido[3,4-d]pyrimidine] |
| 0.49 nM | 1200 nM | – | Cc1n[nH]cc1-c1nc(N2CCC3(CCN(C)C3)CC2)c2cc(Cc3ccncc3)ncc2n1 [Example 236, 2-(3-methyl-1H-pyrazol-4-yl)-4-(2-methyl-2,8-diazaspiro[4.5]decan-8-yl)-6-(pyridin-4-ylmethyl)pyrido[3,4-d]pyrimidine] |
| 0.25 nM | 2300 nM | – | Cc1n[nH]cc1-c1nc(N2CCC3(CCN(C)C3)CC2)c2cc(Cc3ccccn3)ncc2n1 [Example 238, 2-(3-methyl-1H-pyrazol-4-yl)-4-(2-methyl-2,8-diazaspiro[4.5]decan-8-yl)-6-(pyridin-2-ylmethyl)pyrido[3,4-d]pyrimidine] |
| 2 nM | 3200 nM | – | CC(C)c1cncc2nc(-c3ccncc3)nc(N3CCC4(CCNC4)CC3)c12 [Example 240, 5-Isopropyl-2-(pyridin-4-yl)-4-(2,8-diazaspiro[4.5]decan-8-yl)pyrido[3,4-d]pyrimidine] |
